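Assay format: 96-well plates, 48-hour exposure. TGI denotes the concentration required for complete inhibition of growth.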

Among the test systems are UACC-62 melanoma; UO-31 renal; OVCAR-4 ovarian; 786-0 renal; RXF 393 renal; UACC-257 melanoma; M14 melanoma; HT29 colon; HCT-15 colon; SK-MEL-28 melanoma; KM12 colon; BT-549 breast; SF-268 CNS; T-47D breast; HCT-116 colon; OVCAR-3 ovarian; SNB-75 CNS; MALME-3M melanoma; LOX IMVI melanoma.
Common to all, as to experiment: inhibition of tumour cell growth, NCI panel, 48 h

In the case of `CSc1nc(-c2ccc(C)cc2)c(C#N)c(=O)[nH]1`, the TGI in the experiment with UACC-62 melanoma, with UO-31 renal, in the experiment on OVCAR-4 ovarian, in the experiment with 786-0 renal, in the experiment on RXF 393 renal and in the experiment with UACC-257 melanoma was greater than 100 µM in each case. Further, the TGI in the experiment on M14 melanoma, in the experiment with HT29 colon, with HCT-15 colon, in the experiment on SK-MEL-28 melanoma, with KM12 colon and with BT-549 breast was greater than 100 µM in each case. The TGI in the experiment on SF-268 CNS, in the experiment on T-47D breast, in the experiment with HCT-116 colon, in the experiment with OVCAR-3 ovarian and in the experiment on SNB-75 CNS was greater than 100 µM throughout.

As for `c1ccc(-c2ccc(-c3cc4ccccc4[nH]3)cc2)cc1`, the TGI in the experiment on UACC-62 melanoma, in the experiment on UO-31 renal, with OVCAR-4 ovarian, in the experiment on 786-0 renal, in the experiment on UACC-257 melanoma and in the experiment with M14 melanoma was greater than 100 µM each time. Also, the TGI with HT29 colon, with HCT-15 colon, with SK-MEL-28 melanoma, with KM12 colon, in the experiment with MALME-3M melanoma and in the experiment on BT-549 breast was greater than 100 µM in each case. For the same molecule, the TGI in the experiment on SF-268 CNS, in the experiment on T-47D breast, in the experiment on HCT-116 colon, with OVCAR-3 ovarian, with SNB-75 CNS and in the experiment with LOX IMVI melanoma was greater than 100 µM each time.

As to `NC1CC(N)c2c(Br)sc(Br)c21` (configuration not stated), the TGI in the experiment with UACC-62 melanoma, in the experiment on UO-31 renal, in the experiment on OVCAR-4 ovarian, with 786-0 renal, with UACC-257 melanoma and with M14 melanoma was greater than 100 µM in each case. For the same molecule, the TGI in the experiment with HT29 colon, in the experiment on HCT-15 colon, with SK-MEL-28 melanoma, with KM12 colon, with MALME-3M melanoma and in the experiment with BT-549 breast was greater than 100 µM each time. Further, the TGI in the experiment on SF-268 CNS, in the experiment with T-47D breast, in the experiment with HCT-116 colon, with OVCAR-3 ovarian and in the experiment on LOX IMVI melanoma was greater than 100 µM each time.

Take `COc1cc(/C=C/C(=O)OC2C(O)C3CC(OC(=O)c4cc(OC)c(OC)c(OC)c4)CC2N3C)cc(OC)c1OC` (configuration not stated): the TGI in the experiment on UACC-62 melanoma, in the experiment on UO-31 renal, in the experiment on OVCAR-4 ovarian, in the experiment with 786-0 renal, in the experiment with RXF 393 renal and in the experiment on UACC-257 melanoma was greater than 50 µM each time. The TGI in the experiment on M14 melanoma, in the experiment with HT29 colon, in the experiment on HCT-15 colon, with KM12 colon, in the experiment on BT-549 breast and in the experiment on SF-268 CNS was greater than 50 µM throughout. Further, the TGI was 43.7 µM in the experiment with T-47D breast; greater than 50 µM in the experiment with HCT-116 colon; greater than 50 µM in the experiment on OVCAR-3 ovarian; greater than 50 µM with SNB-75 CNS; greater than 50 µM in the experiment with LOX IMVI melanoma.

In the case of `O=C1c2cc3c(cc2CC12Cc1cc4c(cc1C2=O)CCC4)CCC3`, the TGI with UACC-62 melanoma, in the experiment with UO-31 renal, with 786-0 renal, in the experiment with RXF 393 renal, with UACC-257 melanoma and in the experiment on M14 melanoma was greater than 100 µM in each case. Moreover, the TGI with HT29 colon, in the experiment with HCT-15 colon, with SK-MEL-28 melanoma, in the experiment on KM12 colon, in the experiment with MALME-3M melanoma and in the experiment on BT-549 breast was greater than 100 µM in each case. In addition, the TGI in the experiment with SF-268 CNS, in the experiment on T-47D breast, in the experiment on HCT-116 colon, in the experiment with OVCAR-3 ovarian, in the experiment with SNB-75 CNS and in the experiment on LOX IMVI melanoma was greater than 100 µM throughout.

Take `COc1cccc(Nc2nc(-c3cccs3)nc3ccc(Br)cc23)c1`: the TGI in the experiment on UACC-62 melanoma, with UO-31 renal, in the experiment with 786-0 renal, in the experiment with UACC-257 melanoma, in the experiment on M14 melanoma and in the experiment with HT29 colon was greater than 100 µM throughout. The TGI in the experiment on HCT-15 colon, with KM12 colon, in the experiment with MALME-3M melanoma, in the experiment with BT-549 breast, in the experiment on SF-268 CNS and in the experiment with T-47D breast was greater than 100 µM throughout. The TGI in the experiment with HCT-116 colon, with OVCAR-3 ovarian and with LOX IMVI melanoma was greater than 100 µM throughout.

As to `CCCc1c(O)c(=O)c2c(OC)cc(OC)c3c4c(OC)cc(OC)c5c(=O)c(O)c(CCC)c(c1c23)c54`, the TGI with UACC-62 melanoma is 1.88 µM; in the experiment on UO-31 renal, 3.35 µM; in the experiment on OVCAR-4 ovarian, 14.1 µM; in the experiment on 786-0 renal, 9.59 µM; in the experiment with RXF 393 renal, 28 µM; with UACC-257 melanoma, 7.06 µM. The TGI with M14 melanoma is 8.65 µM; in the experiment with HT29 colon, 6.75 µM; in the experiment with HCT-15 colon it was 11.6 µM; in the experiment on SK-MEL-28 melanoma it was 19.1 µM; with KM12 colon it was 5.41 µM; in the experiment on BT-549 breast it was 10.1 µM. Further, the TGI was 19.5 µM in the experiment on SF-268 CNS; 5.73 µM with T-47D breast; 1.23 µM with HCT-116 colon; greater than 27.7 µM with OVCAR-3 ovarian; 3.53 µM in the experiment on SNB-75 CNS; 1.86 µM in the experiment on LOX IMVI melanoma.

With `COc1ccc(C2C3CCc4ccccc4C3=NN2S(=O)(=O)c2ccc(Cl)cc2)cc1` (configuration not stated), the TGI with UACC-62 melanoma is greater than 100 µM; in the experiment on UO-31 renal, greater than 100 µM; in the experiment on OVCAR-4 ovarian, greater than 100 µM; with 786-0 renal, 66.6 µM; in the experiment with RXF 393 renal, 58.4 µM; in the experiment on UACC-257 melanoma, greater than 100 µM. The TGI was greater than 100 µM in the experiment with M14 melanoma; 63.3 µM in the experiment on HT29 colon; 4.52 µM in the experiment with HCT-15 colon; greater than 100 µM with KM12 colon; greater than 100 µM in the experiment with MALME-3M melanoma; greater than 100 µM in the experiment on BT-549 breast. For the same molecule, the TGI with SF-268 CNS, with T-47D breast, in the experiment on HCT-116 colon, in the experiment with OVCAR-3 ovarian and with LOX IMVI melanoma was greater than 100 µM each time.
